Read-outs that look alike come from different tables or passages of the source.
Columns and labels:
JAK2 = target: T1, JAK2 (Homo sapiens, UniProt O60674); assay: JAK tyrosine phosphorylation activity, Z'-LYTE FRET kinase assay; format: biochemical; conditions: catalytic domain recombinant kinase, Tyr6 peptide
T1 construct: 5 μl of catalytic domain recombinant Kinase enzyme+Tyr peptide substrate (Invitrogen, CA); purchased Invitrogen
Summary of the method: (§1)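 Catalytic-domain recombinant kinases with Tyr6 peptide substrate and ATP, 1% DMSO, reacted 1 h at room temperature, then protease development 1 h. FRET read at ex 400 nm, em 445/520 nm; inhibition from percent substrate phosphorylation versus no-inhibitor control, IC50 by 4-parameter logistic fit.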

JAK3 = target: T2, JAK3 (Homo sapiens, UniProt P52333); assay: as above; format: biochemical; conditions: catalytic domain recombinant kinase, Tyr6 peptide
T2 construct: 5 μl of catalytic domain recombinant Kinase enzyme+Tyr peptide substrate (Invitrogen, CA); purchased Invitrogen
T2 sequence (P52333 822-1111 limits assumed): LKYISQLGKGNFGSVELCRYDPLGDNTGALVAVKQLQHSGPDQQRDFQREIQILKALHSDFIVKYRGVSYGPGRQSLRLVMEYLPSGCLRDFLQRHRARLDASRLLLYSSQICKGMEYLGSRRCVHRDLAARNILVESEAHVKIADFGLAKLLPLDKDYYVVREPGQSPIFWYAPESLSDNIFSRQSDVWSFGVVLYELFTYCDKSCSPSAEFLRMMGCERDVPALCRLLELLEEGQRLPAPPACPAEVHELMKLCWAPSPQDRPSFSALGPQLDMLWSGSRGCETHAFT
Summary of the method: as §1

JAK1 = target: T3, JAK1 (Homo sapiens, UniProt P23458); assay: as above; format: biochemical; conditions: catalytic domain recombinant kinase, Tyr6 peptide; for IC50: read-out: JAK1 IC50 % Inhibition
T3 construct: 5 μl of catalytic domain recombinant Kinase enzyme+Tyr peptide substrate (Invitrogen, CA); purchased Invitrogen
T3 sequence (P23458 875-1153 limits assumed): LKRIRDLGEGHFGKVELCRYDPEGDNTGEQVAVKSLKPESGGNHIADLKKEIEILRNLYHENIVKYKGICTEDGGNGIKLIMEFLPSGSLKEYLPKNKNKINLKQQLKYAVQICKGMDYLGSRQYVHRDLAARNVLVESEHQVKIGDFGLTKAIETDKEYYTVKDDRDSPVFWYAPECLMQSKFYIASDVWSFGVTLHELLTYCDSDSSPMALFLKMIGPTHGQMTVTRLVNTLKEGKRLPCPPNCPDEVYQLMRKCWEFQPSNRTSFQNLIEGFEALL
Summary of the method: as §1

[1] = target: T4, full length active recombinant SYK enzyme (Homo sapiens, UniProt P43405); assay: SYK tyrosine phosphorylation activity, LANCE TR-FRET kinase assay; format: biochemical; conditions: 1 nM SYK, 100 μM ATP, 1 hour at room temperature
T4 construct: full length active recombinant SYK enzyme (Millipore, CA); purchased Millipore
Summary of the method: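 Full-length active SYK (1 nM) phosphorylates 550 nM biotinylated substrate with 100 μM ATP in Tris pH 7.5, MgCl2, DTT, 3% DMSO, 1 h at room temperature. EDTA stop with Eu-anti-phosphotyrosine/SA-APC TR-FRET detection, 1 h. IC50 by non-linear regression.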

Src kinsase = conditions: cited from earlier work
[2] = system: refractory NHL and chronic lymphocytic leukemia; conditions: phase II; cited from earlier work
[3] = system: FcεR1 and BCR induced Syk activation; conditions: cited from earlier work
JAK kinases = conditions: cited from earlier work
[4] = system: lymphoma cell lines and primary human lymphoma samples; conditions: cited from earlier work
[5] = read-out: Syk IC50 % Inhibition

T1 sequence (O60674 849-1124 limits assumed): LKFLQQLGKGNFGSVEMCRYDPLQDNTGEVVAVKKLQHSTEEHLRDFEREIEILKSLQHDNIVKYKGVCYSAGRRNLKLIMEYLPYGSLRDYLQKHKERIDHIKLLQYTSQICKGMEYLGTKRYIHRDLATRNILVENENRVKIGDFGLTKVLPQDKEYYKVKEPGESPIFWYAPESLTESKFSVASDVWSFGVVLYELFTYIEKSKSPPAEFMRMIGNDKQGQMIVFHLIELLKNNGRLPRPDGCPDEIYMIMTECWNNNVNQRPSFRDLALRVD

| SMILES | JAK2 IC50 potency class (JAK2) | JAK3 IC50 potency class (JAK3) | JAK1 IC50 potency class (JAK1) | IC50 [1] | other results |
| --- | --- | --- | --- | --- | --- |
| NC(=O)c1cnc(Nc2ccc(C3CCNCC3)cc2)nc1NC1CC1 [Compound 55, 4-(cyclopropylamino)-2-((4-(piperidin-4-yl)phenyl)amino)pyrimidine-5-carboxamide] | ++++ (0.01 uM<IC50<0.001 uM) | ++++ (0.01 uM<IC50<0.001 uM) | +++ (0.10 uM<IC50<0.01 uM) | +++ (0.10 uM<IC50<0.01 uM) | – |
| NC(=O)c1cnc(Nc2ccc(C3=CCNCC3)cc2)nc1NC1CC1 [Compound 56, 4-(cyclopropylamino)-2-((4-(1,2,3,6-tetrahydropyridin-4-yl)phenyl)amino)pyrimidine-5-carboxamide] | +++ (0.10 uM<IC50<0.01 uM) | ++++ (0.01 uM<IC50<0.001 uM) | +++ (0.10 uM<IC50<0.01 uM) | +++ (0.10 uM<IC50<0.01 uM) | – |
| CCS(=O)(=O)N1CC=C(c2ccc(Nc3ncc(C(N)=O)c(NC4CC4)n3)cc2)CC1 [Compound 57, 4-(cyclopropylamino)-2-((4-(1-(ethylsulfonyl)-1,2,3,6-tetrahydropyridin-4-yl)phenyl)amino)pyrimidine-5-carboxamide] | +++ (0.10 uM<IC50<0.01 uM) | ++++ (0.01 uM<IC50<0.001 uM) | +++ (0.10 uM<IC50<0.01 uM) | +++ (0.10 uM<IC50<0.01 uM) | – |
| CC(C)c1ccc(Nc2ncc(C(N)=O)c(NC3CC3)n2)cc1 [Compound 59, 4-(cyclopropylamino)-2-((4-isopropylphenyl)amino)pyrimidine-5-carboxamide] | ++ (1.0 uM<IC50<0.10 uM) | +++ (0.10 uM<IC50<0.01 uM) | ++ (1.0 uM<IC50<0.10 uM) | +++ (0.10 uM<IC50<0.01 uM) | – |
| NC(=O)c1cnc(Nc2ccc(C3CCNCC3)cc2)cc1NC1CC1 [Compound 63, 4-(cyclopropylamino)-6-((4-(piperidin-4-yl)phenyl)amino)nicotinamide] | ++ (1.0 uM<IC50<0.10 uM) | ++ (1.0 uM<IC50<0.10 uM) | – | ++ (1.0 uM<IC50<0.10 uM) | IC50 (JAK1): > 1000 nM |
| CCS(=O)(=O)N1CCN(c2ccc(Nc3ncc(C(N)=O)c(NC4CC4)n3)nc2)CC1 [Compound 67, 4-(cyclopropylamino)-2-((5-(4-(ethylsulfonyl)piperazin-1-yl)pyridin-2-yl)amino)pyrimidine-5-carboxamide] | ++ (1.0 uM<IC50<0.10 uM) | ++ (1.0 uM<IC50<0.10 uM) | ++ (1.0 uM<IC50<0.10 uM) | – | IC50 [1, 5]: > 1000 nM |
| NC(=O)c1cnc(NC2CC2)cc1Nc1ccc(C2CCNCC2)cc1 [Compound 68, 6-(cyclopropylamino)-4-((4-(piperidin-4-yl)phenyl)amino)nicotinamide] | – | – | – | – | IC50 (JAK2; read-out: JAK2 IC50 % Inhibition): > 1000 nM; IC50 (JAK3; read-out: JAK3 IC50 % Inhibition): > 1000 nM; IC50 (JAK1): > 1000 nM; IC50 [1, 5]: > 1000 nM |
| CS(=O)(=O)N1CCN(c2ccc(Nc3ncc(C(N)=O)c(NC4CC4)n3)cc2Cl)CC1 [Compound 69, 2-((3-chloro-4-(4-(methylsulfonyl)piperazin-1-yl)phenyl)amino)-4-(cyclopropylamino)pyrimidine-5-carboxamide] | ++++ (0.01 uM<IC50<0.001 uM) | ++++ (0.01 uM<IC50<0.001 uM) | +++ (0.10 uM<IC50<0.01 uM) | +++ (0.10 uM<IC50<0.01 uM) | – |
| COc1cc(Nc2ncc(F)c(Nc3ccc4c(n3)NC(=O)C(C)(C)O4)n2)cc(OC)c1OC [Compound R406] | – | – | – | – | activity against Src kinase (Src kinsase): not against; clinical trial outcome [2]: favorable results; inhibition of ITAM signaling [3]: inhibit ITAM signaling; activity against JAK kinases (JAK kinases): active; effect on BCR signaling ([4]; lymphoma cell lines and primary human lymphoma samples): attenuates BCR signaling; apoptosis ([4]; lymphoma cell lines): resulting in apoptosis |

— patent US9676756B2 (PORTOLA PHARMACEUTICALS, INC., priority 2012, dated 2017)
